Results from publication PMC5593639, “NSC30049 inhibits Chk1 pathway in 5-FU-resistant CRC bulk and stem cell populations” (Oncotarget, 2017).

Tests used:
LoVo cells = experiment: Cell survival (MTT assay), LoVo; type: cell-based; conditions: Homo sapiens, drug alone, 48 h
Method: (§1) The survival of cells was determined by MTT (3-(4,5-Dimethylthiazol-2yl-)-2,5-diphenyl tetrazolium bromide) assay (ATCC, Manassas, VA, USA). In principle, the viable cell number is directly proportional to the purple formazan color of the reduced MTT dye, which can be quantitatively measured by spectrophotometry. Briefly, 1,500 cells were plated in quadruplets in 96-well flat-bottom tissue culture plates. After treatment with compounds for certain periods as described in respective figure legends, 10 μl of MTT reagent was added to each well and incubated at 37°C for 4 h to allow the formation of purple color crystals of formazan. In total, 100 μl of detergent solution was added to each well, and the reaction mixture was incubated in dark for 2–4 h at room temperature. The developed color density was then measured spectrophotometrically at 570 nm using the POLARstar Omega micro-plate reader (BMG Labtech, Inc., Cary, NC, USA).

SW480 cells = experiment: Cell survival (MTT assay), SW480; type: cell-based; conditions: Homo sapiens, drug alone, 48 h
Method: as §1

LS174T cells = experiment: Cell survival (MTT assay), LS174T; type: cell-based; conditions: Homo sapiens, drug alone, 48 h
Method: as §1

HT29 cells = experiment: Cell cycle profile by FACS; type: cell-based, human; conditions: 2 mM HU 24 h
Method: For determining the cell cycle profile, cells were plated in 60 mm tissue culture dishes and grown until 60% confluence. […] After treatment, cells were harvested at different time intervals, washed with ice-cold PBS and processed for FACS analysis as described previously. The ranges for G0/G1, S, and G2/M phase arrested and sub-G1 apoptotic cells were established on the basis of the corresponding DNA content of the histograms. At minimum, 10,000 cells were counted from each sample.

[1] = test system: Chk1 phosphorylation in HCT-116 cells; experiment: Western blot of total and phosphorylated Chk1, HCT-116; type: cell-based, human; conditions: NSC49L alone, 24 h
Method: (§2) The levels of various proteins were determined by Western blot analysis with our previously described procedure. The antibodies for phospho-Chk1(Ser317), phospho-Chk1(Ser317), phospho-Chk1(Ser319), phospho-Chk1(Ser345), Chk1, and GAPDH were purchased from Cell Signaling Technology (Danvers, MA, USA).

[2] = test system: Chk1 phosphorylation in CA2 cells; experiment: Western blot of total and phosphorylated Chk1, CA2; type: cell-based, human; conditions: NSC49L alone, 24 h
Method: as §2

HCT116(p53−/−) cells = experiment: MTT assay, IC50 of HU, HCT116(p53−/−); type: cell-based, human; conditions: HU combined with NSC49L, 72 h
Method: as §1

[3] = test system: γH2AX(S139P)-foci in HCT-116 cells; experiment: γH2AX(S139P)-foci IHC staining, HCT-116; type: cell-based, human; conditions: 24 h
[4] = test system: γH2AX(S139P)-foci in CA2 cells; experiment: γH2AX(S139P)-foci IHC staining, CA2; type: cell-based, human; conditions: 24 h
[5] = test system: γH2AX(S139P)-foci in HCoEpiC cells; experiment: γH2AX(S139P)-foci IHC staining, HCoEpiC; type: cell-based, human; conditions: NSC49L alone or in combination with 5-FU, 24 h
[6] = Pharmacokinetic analysis in CD1 mice; type: in vivo, male CD1 mice; conditions: 20 mg/kg body weight, IP, plasma
Method: Pharmacokinetic analysis of NSC30049 in CD1 mice was determined by Pharmaron, Inc. (Louisville, KY, USA). Mice were injected intraperitoneally (IP) with NSC49L (20 mg/kg body weight) and approximately 0.04 ml blood was collected at 0, 5, 15 and 30 min, 1, 2, 4, 8 and 24 h time point. Blood of each sample was transferred into plastic micro-centrifuge tubes containing 2 μl of Heparin (1,000 IU). Samples were stored in a freezer at −75 ± 15°C prior to analysis. Concentrations of NSC49L in the plasma samples was analyzed using a LC-MS/MS method. WinNonlin® (Phoenix®, version 6.1) software was used for pharmacokinetic calculations. The following pharmacokinetic parameters were calculated from the plasma concentration versus time data: T1/2, Cmax, AUClast, AUCinf, AUCextra%, Number of Points for Regression. The pharmacokinetic data is described using mean ± standard deviation (SD) and n = 3.

[7] = Maximum tolerated dose and pathological analysis of organs; type: in vivo, male SCID mice
Method: We have determined the MTD of NSC49L from male homozygous CB17 scid/scid (SCID) mice obtained from Tacomic Farms (Germantown, NY, USA). The mice were treated subcutaneously at 25, 50, and 75 mg/kg body weight for 5 consecutive days followed by observation for an additional 7 days. Every day body weight was recorded and behavioral changes were monitored in the treated versus control animals. After the 7th day animals were sacrificed and the organs from the mice treated at 75 mg/kg body weight were processed for pathological examination. Different organs were fixed in 10% buffered formalin, then sectioned and processed into paraffin blocks. Tissue sections were cut 4–5 μm thick and stained with hematoxylin and eosin. Histologic differences between control (A) and treated (B) mice were recorded and photomicrographs were taken with Olympus, BX41 microscope with attached camera.

[8] = test system: human-derived CRC stem cell tumors; experiment: Patient-derived tumor xenograft (PDTX) of CRC stem cell tumors; type: in vivo, female SCID mice; conditions: 50 mg/kg body weight NSC49L every day, 30 days
Method: With the pharmacokinetics analysis and MTD data in hand, we determined the efficacy of NSC49L and 5-FU alone and in combination for the growth of human-derived CRC stem cell tumors in vivo. CRC stem cells were isolated and characterized from the freshly resected human CRC tumor. One thousands of these CRC stem cells were injected subcutaneously into the right flank of the four 5-week old female SCID mice. After 20 days the first generation tumors (F0) of approximately 2,000 mm^3 in size were harvested. They were divided into four equal pieces and implanted under the skin of the female SCID mice for the growth of second generation tumors (F1) for testing the drug efficacy studies. We divided the F1 tumor bearing mice into four groups and treated them every day subcutaneously with drugs as follows: i) PBS control, (ii) 50 mg/kg body weight NSC49L, (iii) 20 mg/kg body weight 5-FU, and iv) 50 and 20 mg/kg body weight NSC49L and 5-FU, respectively, for 30 days. The treatment with drugs began after 10 days of tumor growth. The body weight and tumor volumes were recorded twice a weak. The experiment was terminated on the 32nd day.

[9] = HU withdrawn, then 20 μM NSC49L 8 h
[10] = then 20 μM NSC49L additional 8 h in presence of HU
[11] = NSC49L in combination with 5-FU

ClC/C=C/C[N+]12CN3CN(CN(C3)C1)C2 [NSC49L]
IC50 (LoVo cells): 4.2 ± 0.1 µM | IC50 (SW480 cells): 4.4 ± 0.2 µM | IC50 (LS174T cells): 4.6 ± 0.8 µM | Cell cycle distribution G2/M (HT29 cells; [9]): 26.1% | Cell cycle distribution S (S-phase arrest) (HT29 cells; [9]): 50.6% | Cell cycle distribution S (S-phase arrest) (HT29 cells; [10]): 39.7% | Entry of G2/M-phase (HT29 cells; [10]): complete blockage to the entry of G2/M-phase | Chk1(S317P) and Chk1(S296P) levels [1]: no effect | Chk1(S345P) levels [1]: dose-dependent increase | Chk1(S317P) and Chk1(S296P) levels [2]: very little change | Chk1(S345P) level [2]: increase in a dose-dependent manner | IC50 of HU (HCT116(p53−/−) cells): further decreased | γH2AX(S139P)-foci ([3]; NSC49L alone): increased | γH2AX(S139P)-foci [3, 11]: further increased | γH2AX(S139P)-foci ([4]; NSC49L alone): increased | γH2AX(S139P)-foci [4, 11]: further increased | replication stress-mediated DNA damage (γH2AX(S139P)-foci) [5]: no effect | AUC_%Extrap_obs [6]: 0.187 ± 293% | AUC(0-inf) ([6]; male, CD1, mouse): 1310 ± 89 ng·h/mL | AUC(0-t) ([6]; male, CD1, mouse): 1310 ± 86 ng·h/mL | Cmax ([6]; male, CD1, mouse): 5530 ng/mL | Tmax ([6]; male, CD1, mouse): 4.98 min | half-life ([6]; male, CD1, mouse, n = 3): 14 ± 5.88 min | AUC ([6]; male, CD1, mouse, read-out: AUC (bioavailability)): 1310 ± 86 ng·h/mL | Histologic sections of organs ([7]; 75 mg/kg body weight, bone marrow, brain, kidney, liver, lung, pancreas): no significant differences between control and treated mice | Body weight, behavior, pathological abnormalities ([7]; 25, 50 and 75 mg/kg body weight, 5 consecutive days, 7 days observation, treated versus control): no change in body weight, behavior, or pathological abnormalities | Growth of CRC stem cell tumors [8]: significant growth inhibition
